In ChEMBL document CHEMBL1201862, “PubChem BioAssay data set” (2004):
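48-hour exposure; five concentrations; linearly interpolated endpoints. The concentration for 50% growth inhibition is given as GI50.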 The source made the active and inactive calls. No stated cut-off is given here; in the data, active = GI50 up to about 1.1 µM and inactive = higher.

Tests used:
Assay in all cases: NCI anticancer screen, dose series, 48 h
PC-3 = system: PC-3
UO-31 = system: UO-31
SK-MEL-2 = system: SK-MEL-2
CCRF-CEM = system: CCRF-CEM
NCI/ADR-RES = system: NCI/ADR-RES
ACHN = system: ACHN
T47D = system: T47D
SNB-75 = system: SNB-75
COLO 205 = system: COLO 205
CAKI-1 = system: CAKI-1
M14 = system: M14
U-251 = system: U-251
HOP-62 = system: HOP-62
HCC 2998 = system: HCC 2998
DU-145 = system: DU-145
OVCAR-3 = system: OVCAR-3
SF-268 = system: SF-268
HCT-116 = system: HCT-116
IGROV-1 = system: IGROV-1
MDA-N = system: MDA-N

SMILES | GI50 (PC-3) | GI50 (UO-31) | GI50 (SK-MEL-2) | GI50 (CCRF-CEM) | GI50 (NCI/ADR-RES) | GI50 (ACHN) | GI50 (T47D) | GI50 (SNB-75) | GI50 (COLO 205) | GI50 (CAKI-1) | GI50 (M14) | GI50 (U-251) | GI50 (HOP-62) | GI50 (HCC 2998) | GI50 (DU-145) | GI50 (OVCAR-3) | GI50 (SF-268) | GI50 (HCT-116) | GI50 (IGROV-1) | GI50 (MDA-N)
CC(N/N=C(\S)N1CCN(c2ccccn2)CC1)c1nccc2ccccc12 (stereo not given) | 0.589 µM (active) | 1.06 µM (active) | 4.23 µM (inactive) | < 0.01 µM (active) | < 0.0216 µM (active) | 0.838 µM (active) | < 0.01 µM (active) | 6.43 µM (inactive) | 0.119 µM (active) | 1.61 µM (inactive) | 0.045 µM (active) | 0.385 µM (active) | 2.86 µM (inactive) | 0.769 µM (active) | 1.32 µM (inactive) | < 0.0121 µM (active) | 0.514 µM (active) |  |  | 
COc1ccc(-c2nnc(CCCCCCCCc3nnc(-c4ccc(OC)cc4)o3)o2)cc1 | > 100 µM (inactive) | > 100 µM (inactive) | > 100 µM (inactive) | > 100 µM (inactive) | > 100 µM (inactive) | > 100 µM (inactive) |  | 27 µM (inactive) | > 100 µM (inactive) | > 100 µM (inactive) | > 100 µM (inactive) | 27.6 µM (inactive) | 25.4 µM (inactive) | > 100 µM (inactive) | > 100 µM (inactive) | > 100 µM (inactive) | > 100 µM (inactive) | 60.7 µM (inactive) | > 100 µM (inactive) | > 100 µM (inactive)
Fc1ccc(/C(=N/Cc2ccccc2)N2CCOCC2)cc1 | > 100 µM (inactive) | 67.5 µM (inactive) | > 100 µM (inactive) | > 100 µM (inactive) | > 100 µM (inactive) | > 100 µM (inactive) |  | > 100 µM (inactive) | > 100 µM (inactive) | > 100 µM (inactive) | > 100 µM (inactive) | > 100 µM (inactive) | > 100 µM (inactive) |  | > 100 µM (inactive) | > 100 µM (inactive) | > 100 µM (inactive) | > 100 µM (inactive) | > 100 µM (inactive) | > 100 µM (inactive)
COC(=O)Cc1ccc(Oc2nc3ccccc3nc2-c2cccs2)cc1 | > 100 µM (inactive) | > 100 µM (inactive) | 53.5 µM (inactive) | > 100 µM (inactive) | 79.4 µM (inactive) | > 100 µM (inactive) | > 100 µM (inactive) | 6.81 µM (inactive) | > 100 µM (inactive) | > 100 µM (inactive) | > 100 µM (inactive) | 39.1 µM (inactive) | 38.5 µM (inactive) | > 100 µM (inactive) | > 100 µM (inactive) | > 100 µM (inactive) | 36 µM (inactive) | > 100 µM (inactive) | > 100 µM (inactive) | 
CC(C)c1c(O[Si](C(C)C)(C(C)C)C(C)C)c2c3c(ccc4c3c1OC4(C)C)C(C)CC2 (stereo not given) | > 100 µM (inactive) | > 100 µM (inactive) | > 100 µM (inactive) | > 100 µM (inactive) | > 100 µM (inactive) | > 100 µM (inactive) |  | 21.3 µM (inactive) | > 100 µM (inactive) | > 100 µM (inactive) | > 100 µM (inactive) | > 100 µM (inactive) | > 100 µM (inactive) |  | > 100 µM (inactive) | > 100 µM (inactive) | > 100 µM (inactive) | > 100 µM (inactive) | > 100 µM (inactive) | > 100 µM (inactive)
O=C(O)C1C2C=CC(O2)C1C(=O)NCc1ccncc1 (stereo not given) | > 100 µM (inactive) | > 100 µM (inactive) | > 100 µM (inactive) | > 100 µM (inactive) |  | > 100 µM (inactive) | > 100 µM (inactive) | > 100 µM (inactive) | > 100 µM (inactive) | > 100 µM (inactive) | > 100 µM (inactive) | > 100 µM (inactive) | > 100 µM (inactive) |  | > 100 µM (inactive) | 33.7 µM (inactive) | > 100 µM (inactive) | > 100 µM (inactive) | > 100 µM (inactive) | > 100 µM (inactive)
COC(=O)c1ccc(-c2nc(C#N)c(N)o2)cc1 | > 100 µM (inactive) | > 100 µM (inactive) | > 100 µM (inactive) | > 100 µM (inactive) |  | > 100 µM (inactive) | > 100 µM (inactive) |  | > 100 µM (inactive) | > 100 µM (inactive) | > 100 µM (inactive) | 31.6 µM (inactive) | 67.9 µM (inactive) |  | > 100 µM (inactive) | > 100 µM (inactive) | 37.7 µM (inactive) | > 100 µM (inactive) | 99.8 µM (inactive) | 
CCOC(=O)C1C(c2ccc([N+](=O)[O-])cc2)NC(c2ccc([N+](=O)[O-])cc2)C(C(=O)OC)S1(=O)=O (stereo not given) |  | > 100 µM (inactive) | > 100 µM (inactive) | > 100 µM (inactive) |  | > 100 µM (inactive) |  | > 100 µM (inactive) | > 100 µM (inactive) | > 100 µM (inactive) | > 100 µM (inactive) | > 100 µM (inactive) | > 100 µM (inactive) | > 100 µM (inactive) |  | > 100 µM (inactive) | > 100 µM (inactive) | > 100 µM (inactive) | > 100 µM (inactive) | 
